This is an account of results in patent publication US4486429A, “Amino derivatives of 4-phenyl 4-oxobuten-2-oic acid, pharmaceutical compositions containing them, and methods for preparing and therapeutically using them” (Roussel Uclaf, priority 1981, dated 1984).

Series [1] can be described thus: Determination of the acute toxicity (LD50, oral, mice). The conditions noted are these: mouse, in vivo, oral administration. As to the method:
(3) Determination of the acute toxicity
The LD50 was evaluated after oral administration of the product to mice.

For the next series, the system named is gastric secretions. As to the kind of experiment: Determination of the anti-gastric secretion activity (Shay technique, pylorus ligation, rats). In kind it is in vivo. The conditions noted are these: pylorus ligated, dose 10 mg/kg, intraduodenal, 3 hours, total acidity of gastric juice. As to the method:
(1) Determination of the anti-gastric secretion activity
The technique used is described by H. SHAY et al. in Gastroenterology 5, 43, 1945.
Male rats were used having a weight of about 200 g each (10 animals per lot), and kept without food for 48 hours but enjoying ad libitum 8% glucose solution. After the rats were slightly anesthetized with ether the pylorus of each was ligated. At the end of the operation, the product to be tested was administered intraduodenally in different doses or, for the control animals 0.5% carboxymethyl cellulose solution was administered, whereupon the abdominal incision is sutured.
Three hours later, the animals were sacrificed and their stomachs removed after ligating the esophagus. The gastric juice was removed and centrifuged. The volume of gastric juice obtained was then measured and the total acidity of the gastric juice was determined by titrating a […] of gastric juice to a pH of 7 by means of 1/10 N aqueous sodium hydroxide solution.
The percentages of variation in total acidity of the gastric secretions between control and test animals were calculated.

A further series concerns stomach ulcers. Kind of series: Determination of the anti-ulcer activity (stress ulcer, rats). Format: in vivo. Particulars: female rats, stress and cold (8° C., two hours), dose 10 mg/kg by esophageal tube two hours before. As to the method:
(2) Determination of the anti-ulcer activity
The technique consists in inducing stomach ulcers by stress in rats (stress and cold). The technique used is described by E. C. SENAY and R. J. LEVINE, Proc. Soc. Exp. Biol. 124, 1221 (1967).
Female rats weighing about 150 g (5 animals per lot) which have fasted for 48 hours with water ad libitum and glucose solution for 8 hours were used. By an esophageal tube, the animals were administered the test compound, or a solution of 0.5% carboxymethyl cellulose solution for the control animals. Two hours later, the animals were bundled in a jacket of netting. Their paws were bound and the entire unit was placed in a refrigerator at 8° C. for two hours. The rats were released and killed with ether.
Their stomachs were removed, opened along the greater curvature and examined by binocular magnifier. The seriousness of ulceration was clasified from 0 to 3 for each stomach.
For each lot of rats the average intensity of the ulcerations was calculated. The degree of ulceration for control and test animals was determined and the variation expressed in percentage.

On to `CCOC(=O)Nc1ccc(C(=O)/C=C/C(=O)O)cc1` [Example 1, (E) 4-(4-carbethoxyaminophenyl)-4-oxobuten-2-oic acid], for which the LD50 (as a rule, the dose at which mortality reaches 50%) in series [1] was above 1000 mg/kg. Further, the “Anti-secretion activity (% variation referred to the controls): Acid Concentration” value in the series on gastric secretions is -55%. In addition, the “Anti-ulcer activity (% variation referred to the controls): Ulceration” value in the series on stomach ulcers is -41%.

`CN(C)c1ccc(C(=O)/C=C/C(=O)O)cc1` [Example 4, (E) 4-(4-N,N-dimethylaminophenyl) 4-oxobuten-2-oic acid]: the LD50 in series [1] came to 750 mg/kg. The “Anti-secretion activity (% variation referred to the controls): Acid Concentration” value with gastric secretions is reported as -58%. The “Anti-ulcer activity (% variation referred to the controls): Ulceration” value in the series on stomach ulcers is reported as -61%.
